Experimental data taken from patent publication US8680159B2, “Bradykinin 1 receptor modulating compounds” (Gruenenthal GmbH, priority 2010, dated 2014).

What follows are compounds tested against T1, B1R receptor of the rat (CHO K1 cells stably transfected with the B1R gene of the rat) (Rattus norvegicus, UniProt P97583) (assay: Functional study on the bradykinin receptor 1 (B1R), Ca2+ fluorescence (Fluo-4) FLIPR/Novostar assay, rB1R cells). Details: CHO-K1, 10 μM, library compounds CC_H, read-out: % Inhibition (r-B1R) at 10 μM.
T1 construct: expressed in transfected cells; host or cells: CHO K1 cells (Chinese hamster ovary), stably transfected
T1 sequence (P97583 1-337): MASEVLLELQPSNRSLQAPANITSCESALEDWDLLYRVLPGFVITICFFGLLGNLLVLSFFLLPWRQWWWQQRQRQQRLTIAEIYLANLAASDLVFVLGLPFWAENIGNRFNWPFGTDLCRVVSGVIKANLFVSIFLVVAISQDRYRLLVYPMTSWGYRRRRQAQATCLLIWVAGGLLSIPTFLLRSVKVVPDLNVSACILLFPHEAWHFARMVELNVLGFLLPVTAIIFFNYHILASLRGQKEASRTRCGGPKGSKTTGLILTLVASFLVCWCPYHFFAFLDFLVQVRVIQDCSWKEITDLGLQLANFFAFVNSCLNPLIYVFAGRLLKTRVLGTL
Format: cell-based
In short: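 Ca2+ influx (Fluo-4, peak fluorescence, λex 488/λem 540 nm) was measured in CHO K1 lines expressing rat or human B1R. After a 10 μM test-compound pre-addition scoring % activation, cells received EC80 agonist: Des-Arg9-bradykinin for rat, Lys-Des-Arg9-bradykinin for human. Antagonism was expressed as % of maximum inhibition, with IC50 from varied concentrations.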
In the case of `CN(C(=O)c1ccc2c(c1)C(NC(=O)c1cccnc1C(F)(F)F)CC2)C1CCN(c2ccnc(S(C)(=O)=O)n2)CC1` (stereo not shown) [CC_H-600, N-[6-[Methyl-[1-(2-methylsulfonyl-pyrimidin-4-yl)-piperidin-4-yl]-carbamoyl]-2,3-dihydro-1H-inden-1-yl]-2-(trifluoromethyl)-pyridine-3-carboxylic acid amide], the inhibition at 10 µM is reported as 91%. `CN(C)C(=O)c1cc(N2CCC(N(C)C(=O)c3ccc4c(c3)C(NC(=O)c3cccnc3C(F)(F)F)CC4)CC2)ccn1` (stereo not shown) [CC_H-601, N-[6-[[1-[2-(Dimethyl-carbamoyl)-pyridin-4-yl]-piperidin-4-yl]-methyl-carbamoyl]-2,3-dihydro-1H-inden-1-yl]-2-(trifluoromethyl)-pyridine-3-carboxylic acid amide] was tested, and the inhibition at 10 µM was 74%. Work on `CN(C(=O)c1ccc2c(c1)C(NC(=O)c1cccnc1C(F)(F)F)CC2)C1CCN(c2ccnc(N3CCCC3)n2)CC1` (stereo not shown) [CC_H-603, N-[6-[Methyl-[1-(2-pyrrolidin-1-yl-pyrimidin-4-yl)-piperidin-4-yl]-carbamoyl]-2,3-dihydro-1H-inden-1-yl]-2-(trifluoromethyl)-pyridine-3-carboxylic acid amide] yielded an inhibition at 10 µM of 102%. Compound `Cc1cc(N2CCC(N(C)C(=O)c3ccc4c(c3)C(NC(=O)c3cccnc3C(F)(F)F)CC4)CC2)nc(N(C)C)n1` (stereo not shown) [CC_H-604, N-[6-[[1-(2-Dimethylamino-6-methyl-pyrimidin-4-yl)-piperidin-4-yl]-methyl-carbamoyl]-2,3-dihydro-1H-inden-1-yl]-2-(trifluoromethyl)-pyridine-3-carboxylic acid amide] has an inhibition at 10 µM of 102%. `CN(C(=O)c1ccc2c(c1)C(NC(=O)c1cccnc1C(F)(F)F)CC2)C1CCN(c2ccnc(C(C)(C)C)n2)CC1` (stereo not shown) [CC_H-606, N-[6-[[1-(2-tert-Butyl-pyrimidin-4-yl)-piperidin-4-yl]-methyl-carbamoyl]-2,3-dihydro-1H-inden-1-yl]-2-(trifluoromethyl)-pyridine-3-carboxylic acid amide] gave an inhibition at 10 µM of 99%. `Cc1ncc2n1C(=O)N(C1CCC(N(C)C(=O)c3ccc4c(c3)C(NC(=O)c3cccnc3C(F)(F)F)CC4)CC1)C2` (stereo not shown) [CC_H-607, N-[6-[Methyl-[4-(5-methyl-3-oxo-1,2-dihydro-imidazo[5,1-e]imidazol-2-yl)-cyclohexyl]-carbamoyl]-2,3-dihydro-1H-inden-1-yl]-2-(trifluoromethyl)-pyridine-3-carboxylic acid amide] showed an inhibition at 10 µM of 96%. For `CN(C)c1nccc(N2CCC(N(C)C(=O)c3ccc4c(c3)C(NC(=O)c3cccnc3C(F)(F)F)CC4)CC2)n1` (stereo not shown) [CC_H-608, N-[6-[[1-(2-Dimethylamino-pyrimidin-4-yl)-piperidin-4-yl]-methyl-carbamoyl]-2,3-dihydro-1H-inden-1-yl]-2-(trifluoromethyl)-pyridine-3-carboxylic acid amide], the inhibition at 10 µM was 102%.

Same assay, conditions: CHO-K1, 10 μM, read-out: % Inhibition (r-B1R) at 10 μM
With `CN(C(=O)c1ccc2c(c1)C(NC(=O)c1cc(C(F)(F)F)ccc1Cl)CC2)C1CCN(c2ccc3cnccc3c2)CC1` (stereo not shown) [CC_H-357, 3-[[2-Chloro-5-(trifluoromethyl)-benzoyl]amino]-N-(1-isoquinolin-6-yl-piperidin-4-yl)-N-methyl-2,3-dihydro-1H-indene-5-carboxylic acid amide] the inhibition at 10 µM was 110%. For `Cc1ccc(F)c(C(=O)NC2CCc3ccc(C(=O)N(C)C4CCN(c5ccc6cnccc6c5)CC4)cc32)c1Cl` (stereo not shown) [CC_H-358, 3-[(2-Chloro-6-fluoro-3-methyl-benzoyl)amino]-N-(1-isoquinolin-6-yl-piperidin-4-yl)-N-methyl-2,3-dihydro-1H-indene-5-carboxylic acid amide], the inhibition at 10 µM was 111%. For `CN(C(=O)c1ccc2c(c1)C(NC(=O)c1cc(Cl)ccc1Cl)CC2)C1CCN(c2ccc3cnccc3c2)CC1` (stereo not shown) [CC_H-359, 3-[(2,5-Dichloro-benzoyl)amino]-N-(1-isoquinolin-6-yl-piperidin-4-yl)-N-methyl-2,3-dihydro-1H-indene-5-carboxylic acid amide], the inhibition at 10 µM was 110%. In the case of `CN(C(=O)c1ccc2c(c1)C(NC(=O)C1CCCCC1)CC2)C1CCN(c2ccc3cnccc3c2)CC1` (stereo not shown) [CC_H-360, 3-(Cyclohexanecarbonylamino)-N-(1-isoquinolin-6-yl-piperidin-4-yl)-N-methyl-2,3-dihydro-1H-indene-5-carboxylic acid amide], the inhibition at 10 µM is reported as 109%. Compound `CN(C(=O)c1ccc2c(c1)C(NC(=O)C1CC1)CC2)C1CCN(c2ccc3cnccc3c2)CC1` (stereo not shown) [CC_H-361, 3-(Cyclopropanecarbonylamino)-N-(1-isoquinolin-6-yl-piperidin-4-yl)-N-methyl-2,3-dihydro-1H-indene-5-carboxylic acid amide] has an inhibition at 10 µM of 110%. `CN(C(=O)c1ccc2c(c1)C(NC(=O)CC(C)(C)C)CC2)C1CCN(c2ccc3cnccc3c2)CC1` (stereo not shown) [CC_H-362, 3-(3,3-Dimethyl-butanoylamino)-N-(1-isoquinolin-6-yl-piperidin-4-yl)-N-methyl-2,3-dihydro-1H-indene-5-carboxylic acid amide] was tested, and the inhibition at 10 µM was 110%. With `COCC(=O)NC1CCc2ccc(C(=O)N(C)C3CCN(c4ccc5cnccc5c4)CC3)cc21` (stereo not shown) [CC_H-363, N-(1-Isoquinolin-6-yl-piperidin-4-yl)-3-[(2-methoxy-acetyl)amino]-N-methyl-2,3-dihydro-1H-indene-5-carboxylic acid amide] the inhibition at 10 µM was 89%. `CN(C(=O)c1ccc2c(c1)C(NC(=O)c1cccc(C(F)(F)F)c1Cl)CC2)C1CCN(c2ccc3cnccc3c2)CC1` (stereo not shown) [CC_H-364, 3-[[2-Chloro-3-(trifluoromethyl)-benzoyl]amino]-N-(1-isoquinolin-6-yl-piperidin-4-yl)-N-methyl-2,3-dihydro-1H-indene-5-carboxylic acid amide] was tested, and the inhibition at 10 µM was 111%. `CN(C(=O)c1ccc2c(c1)C(NC(=O)Nc1ccccc1Cl)CC2)C1CCN(c2ccc3cnccc3c2)CC1` (stereo not shown) [CC_H-365, 3-[[(2-Chlorophenyl)-carbamoyl]amino]-N-(1-isoquinolin-6-yl-piperidin-4-yl)-N-methyl-2,3-dihydro-1H-indene-5-carboxylic acid amide] showed an inhibition at 10 µM of 64%. Work on `CN(C(=O)c1ccc2c(c1)C(NC(=O)Nc1c(Cl)cccc1Cl)CC2)C1CCN(c2ccc3cnccc3c2)CC1` (stereo not shown) [CC_H-366, 3-[[(2,6-Dichloro-phenyl)-carbamoyl]amino]-N-(1-isoquinolin-6-yl-piperidin-4-yl)-N-methyl-2,3-dihydro-1H-indene-5-carboxylic acid amide] yielded an inhibition at 10 µM of 92%. `CN(C(=O)NC1CCc2ccc(C(=O)N(C)C3CCN(c4ccc5cnccc5c4)CC3)cc21)c1ccccc1Cl` (stereo not shown) [CC_H-375, 3-[[(2-Chlorophenyl)-methyl-carbamoyl]amino]-N-(1-isoquinolin-6-yl-piperidin-4-yl)-N-methyl-2,3-dihydro-1H-indene-5-carboxylic acid amide] was tested, and the inhibition at 10 µM was 91%. `CN(C(=O)NC1CCc2ccc(C(=O)N(C)C3CCN(c4ccc5cnccc5c4)CC3)cc21)c1ccc(Cl)cc1Cl` (stereo not shown) [CC_H-376, 3-[[(2,4-Dichlorophenyl)-methyl-carbamoyl]amino]-N-(1-isoquinolin-6-yl-piperidin-4-yl)-N-methyl-2,3-dihydro-1H-indene-5-carboxylic acid amide] showed an inhibition at 10 µM of 77%. Compound `CCCS(=O)(=O)NC1CCc2ccc(C(=O)N(C)C3CCN(c4ccc5cnccc5c4)CC3)cc21` (stereo not shown) [CC_H-378, N-(1-Isoquinolin-6-yl-piperidin-4-yl)-N-methyl-3-[(propylsulfonyl)amino]-2,3-dihydro-1H-indene-5-carboxylic acid amide] has an inhibition at 10 µM of 101%. `CC(C)CC(=O)NC1CCc2ccc(C(=O)N(C)C3CCN(c4ccc5cnccc5c4)CC3)cc21` (stereo not shown) [CC_H-379, N-(1-Isoquinolin-6-yl-piperidin-4-yl)-N-methyl-3-(3-methyl-butanoylamino)-2,3-dihydro-1H-indene-5-carboxylic acid amide] was tested, and the inhibition at 10 µM was 110%. In the case of `CCCC(=O)NC1CCc2ccc(C(=O)N(C)C3CCN(c4ccc5cnccc5c4)CC3)cc21` (stereo not shown) [CC_H-380, 3-(Butanoylamino)-N-(1-isoquinolin-6-yl-piperidin-4-yl)-N-methyl-2,3-dihydro-1H-indene-5-carboxylic acid amide], the inhibition at 10 µM is reported as 103%. Compound `CN(C(=O)c1ccc2c(c1)C(NC(=O)CCC1CCCC1)CC2)C1CCN(c2ccc3cnccc3c2)CC1` (stereo not shown) [CC_H-381, 3-(3-Cyclopentyl-propanoylamino)-N-(1-isoquinolin-6-yl-piperidin-4-yl)-N-methyl-2,3-dihydro-1H-indene-5-carboxylic acid amide] has an inhibition at 10 µM of 109%. `CN(C(=O)c1ccc2c(c1)C(NS(=O)(=O)Cc1cccc(C(F)(F)F)c1)CC2)C1CCN(c2ccc3cnccc3c2)CC1` (stereo not shown) [CC_H-383, N-(1-Isoquinolin-6-yl-piperidin-4-yl)-N-methyl-3-[[[3-(trifluoromethyl)phenyl]-methylsulfonyl]amino]-2,3-dihydro-1H-indene-5-carboxylic acid amide] was tested, and the inhibition at 10 µM was 50%. `CN(C(=O)c1ccc2c(c1)C(NS(=O)(=O)Cc1ccccc1F)CC2)C1CCN(c2ccc3cnccc3c2)CC1` (stereo not shown) [CC_H-384, 3-[[(2-Fluorophenyl)-methylsulfonyl]amino]-N-(1-isoquinolin-6-yl-piperidin-4-yl)-N-methyl-2,3-dihydro-1H-indene-5-carboxylic acid amide] gave an inhibition at 10 µM of 109%.
